{
  "source": "paper PMC2323292",
  "about": "“Immunodominant Tuberculosis CD8 Antigens Preferentially Restricted by HLA-B” (PLoS Pathogens, 2007)",
  "key": {"[1]": {"tested_on": "CD8+ T cells", "experiment": "Ex vivo IFN-γ ELISPOT, CD8+ T cells with peptide-pulsed autologous DCs", "assay_type": "cell-based, human", "settings": "donor 443 (LTBI), linear regression"}, "[2]": {"tested_on": "CD8+ T cells", "settings": "donor 160; ex vivo, autologous DCs pulsed with epitope; clones published previously ref 17; cited from earlier work", "description": "Table 3 Summary of CD8+ T Cell Epitopes Identified | column: Epitope-Specific T Cells^a"}},
  "note": "Like-named read-outs stand apart in the source and are kept apart here.",
  "data": [
    {"sequence": "ELPQWLSANR", "values": [
      {"measurement": "Epitope-Specific T Cells", "setting": "[1]", "result": "<10 IFN-γ spot forming units per 2"}
    ]},
    {"sequence": "RADEEQQQAL", "values": [
      {"measurement": "Epitope-Specific T Cells", "setting": "[2]", "result": "120 IFN-γ spot forming units per 2"}
    ]}
  ]
}
